These results are taken from US10150793B2, “Antagonists of CB1 receptor” (INSERM (Institut National de la Santé et de la Recherche …, priority 2011, dated 2018).

Assay [1] deals with T1, CB1 receptor (Mus musculus, UniProt P47746). Nature of the assay: THC-induced increase in food intake in mice. Format: in vivo. On the set-up: tissue Charles River Laboratories (France) (animals); host or cells: living mice, whole animal. To be noted: for effect on THC-induced increase in food intake (hyperphagia) in mice: 24 h-food deprived C57B1/6 mice, THC 1 mg/kg, compound 2 mg/kg sc. Here is the method: Food intake was evaluated by measuring consumption of food in the home cages of the animals. For each animal, 50-100 g of standard laboratory chow (U.A.R., France) was placed in the cleaned home cage. The remaining amount of food was weighted 1 h later and the amount of food consumed calculated.
T1 sequence (P47746 whole entry): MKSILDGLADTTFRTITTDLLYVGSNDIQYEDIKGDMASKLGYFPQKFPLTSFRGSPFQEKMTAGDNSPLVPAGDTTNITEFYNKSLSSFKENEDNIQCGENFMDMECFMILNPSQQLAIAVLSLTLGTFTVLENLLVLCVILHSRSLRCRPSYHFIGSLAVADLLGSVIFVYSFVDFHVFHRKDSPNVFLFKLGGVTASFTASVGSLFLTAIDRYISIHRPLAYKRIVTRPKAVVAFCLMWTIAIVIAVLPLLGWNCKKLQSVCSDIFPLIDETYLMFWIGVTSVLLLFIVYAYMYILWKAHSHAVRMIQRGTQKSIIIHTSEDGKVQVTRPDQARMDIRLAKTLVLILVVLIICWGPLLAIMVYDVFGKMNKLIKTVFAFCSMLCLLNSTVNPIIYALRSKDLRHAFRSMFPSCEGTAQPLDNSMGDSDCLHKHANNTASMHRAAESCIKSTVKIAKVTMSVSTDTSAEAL
Other pregnenolone derivatives (Table 4) for which the metabolism in downstream active steroids was reduced were tested for their ability to inhibit: 1. effects of the THC-induced cannabinoid tetrade (decrease in body temperature and in locomotor activity, (THC 10 mg/kg, compounds 6 mg/kg 15-30 min before THC) that is recognized as a sound method to evaluate the activation of the CB1 receptor; 2. THC-induced increase in food intake a typical effect of CB1 activation (THC between 0.5 and 1 mg/kg, compounds between 2 and 4 mg/kg 30 min before THC); 3. the increase in TNFalpha induced by LPS, another effects typical of CB1 […] (compounds 6 mg/kg 15 min before LPS). For each compound and each test independent groups of animals were used (at least n=6 per compound/per test).

The test system of the next assay is NMDA receptors. Nature of the assay: Whole cell currents induced by NMDA in nucleus accumbens principal neurons. Format: cell-based, mouse. To be noted: −30 mV. Here is the method:
NMDAR-mediated currents: Changes in holding currents induced by NMDA were measured in cells voltage clamped at −30 mV, to relieve NMDAR from the voltage-dependent magnesium block. AMPAR and GABA-A receptors were blocked with DNQX 20 μM and picrotoxine 50 μM, respectably.
To quantify NMDA receptors-mediated currents we used a different strategy. Because of its slow kinetics and voltage dependence, the isolation of NMDAR-mediated mEPSC is not as reliable as for AMPAR-mediated currents. Thus, we decided to record whole cell currents in response exogenously applied NMDA. In NAc PN voltage-clamped at −30 mV, bath perfusion of NMDA 25 μM for 1 minute induced an inward current of similar magnitude in control slices (115±15.5 pA) and in slices pre-treated with pregnenolone (100 nM: 107±9.6 pA; 1 μM: 108.9±12.5 pA; p=0.91) (FIG. 17 B).

The target in assay [2] is CB1 receptor (Rattus norvegicus, UniProt P20272). Nature of the assay: THC inhibition of AMPAR-mediated EPSC, patch clamp in nucleus accumbens slices. Format: cell-based, rats. On the set-up: from tissue; host or cells: acute coronal brain slices, nucleus accumbens. To be noted: slices pre-treated with Pregnenolone 100 nM.
Sequence of CB1 receptor (Rattus norvegicus, UniProt P20272) (P20272 whole entry): as the sequence (P47746 whole entry) above, with D95E counted along it
The target in a further assay is T2, human CB1 receptor (Homo sapiens, UniProt P21554).
T2 construct: host or cells: CHO cells
T2 sequence (P21554 whole entry): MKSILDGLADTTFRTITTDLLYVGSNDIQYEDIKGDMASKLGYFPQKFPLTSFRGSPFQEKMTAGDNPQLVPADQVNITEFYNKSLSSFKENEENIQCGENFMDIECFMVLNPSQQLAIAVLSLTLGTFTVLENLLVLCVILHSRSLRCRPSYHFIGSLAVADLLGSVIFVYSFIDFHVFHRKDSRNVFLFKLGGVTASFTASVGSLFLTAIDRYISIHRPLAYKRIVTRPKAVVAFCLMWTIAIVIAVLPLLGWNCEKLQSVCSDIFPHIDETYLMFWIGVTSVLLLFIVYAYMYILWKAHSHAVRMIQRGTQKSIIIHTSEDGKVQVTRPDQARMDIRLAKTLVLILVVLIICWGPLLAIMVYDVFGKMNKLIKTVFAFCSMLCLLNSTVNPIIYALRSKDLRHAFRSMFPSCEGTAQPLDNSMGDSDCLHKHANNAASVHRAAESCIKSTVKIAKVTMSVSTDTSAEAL
Nature of the assay: Radioligand binding of the CB1 agonist [3H]CP55,940 in CHO cells. To be noted: pregnenolone 10^-12 to 10^-4 M. Here is the method:
The binding assay for orthosteric binding of pregnenolone has been evaluated using Chinese hamster ovary (CHO) cells expressing the human CB1 receptor.
The CB1 binding of pregnenolone has been evaluated by the affinity of pregnenolone for the agonist site of the human CB1 cannabinoid receptor expressed in CHO cells, determined in a radioligand binding assay of the CB1 agonist [3H] CP 55940. The experiments were performed by CEREP France, using the standard procedures of this provider.

Assay [3] concerns the target T1, CB1 receptor. Nature of the assay: Object recognition task, THC-induced amnesia. The arrangement: tissue Charles River Laboratories (France) (animals); host or cells: living mice, whole animal. Format: in vivo, mice. The procedure: Object recognition was measured in a two arms L-maze (size of each arm 30 cm length×4.5 cm width) in dim light condition (50-60 lux). Animals were individually tested for three consecutive days for 9 min-session each day, corresponding to habituation, training and test sessions. On day 1 (habituation session), mice were let explore the L maze with no object. On the second day (training session), two identical objects were presented at the end of the each arm of the maze. Although no preferences for arm of object appeared (data not shown) object and arms were randomized for each mouse/condition. On the 3rd day (test session), one of the familiar objects was replaced with a novel object and the total time spent exploring each of the two objects (novel and familiar) was computed. The time spent in each arm and the time spent exploring an object (familiar or novel) were recorded. Object exploration was defined as the orientation of the nose to the object at a distance of less than 2 cm. During the test session, a discrimination index was calculated as the difference between the times spent exploring either the novel or familiar object divided by the total time exploring the two objects. […]
In this example the inventors further analyzed the ability of pregnenolone to inhibit the effects of CB1 activation. […]

Assay [4] is described as follows: Diet induced obesity, body weight and body composition. Format: in vivo, C57BL/6J mice. Here is the method: 2-months old male C57BL/6J mice were ad libitum fed a 60% high-fat diet (HFD; Catalog #D12492, Research Diets, New Brunswick, N.J.) for 8 weeks and subsequently treated either with pegnenolone or vehicle. Homogeneous distribution of the animals in the 3 treatment groups was guaranteed by matching their body weight, fat mass and fasting glucose levels before the start of the pharmacological treatments.
Fat mass and lean mass were assessed in vivo using an EchoMRI analyzer (EchoMedical Systems, Houston, Tex.) before the mice were placed on the HFD, as well as immediately before and at the end of the chronic treatment with pregnegnolone or its vehicle.
In this example the inventors analyzed the ability of pregnenolone to inhibit the effects of CB1 activation in the context of obesity. The effects of pregnenolone on metabolic disorders were studied using the model of diet induced obesity (DIO) in mice. In this procedure animals are maintained on a high fat diet (60% of fat) which progressively induce obesity. After eight weeks on this diet which already induced overweight and excessive fat accumulation in these animals the treatment with pregnenolone was started for thirty days (once a day 2 mg/kg or 5 mg/kg, n=8).

Assay [5] concerns the target T1, CB1 receptor. Nature of the assay: Food intake in 24 h-food deprived mice (fasting/refeeding). Format: in vivo, C57B1/6 mice. On the set-up: tissue Charles River Laboratories (France) (animals); host or cells: living mice, whole animal. To be noted: for effect on food intake in 24 h-food deprived mice: food intake over 1 h.
The mark [6] stands for this setting: pregnenolone 5 mg/kg, magnetic resonance.

In the case of `CC(=O)[C@H]1CC[C@H]2[C@@H]3CC=C4C[C@@H](O)CC[C@]4(C)[C@H]3CC[C@]12C` [Pregnenolone, 5-Pregnen-3β-ol-20-one], the “effect on THC-induced increase in food intake (hyperphagia) in mice” value on CB1 receptor [1] is “decreased THC-induced hyperphagia”; at CB1 receptor [1] (listed as pregnenolone), “suppressed the increase in food intake”. In addition, on CB1 receptor [1] (dose response in 24 h-food deprived mice, 0.5 mg/kg dose was ineffective), the “dose inhibiting THC-induced increase in food-intake (first effective dose)” value is 1 mg/kg. Further, the figures for the “inward current induced by NMDA 25 μM” value in the assay on NMDA receptors (slices pre-treated with 100 nM) and in the assay with NMDA receptors (slices pre-treated with 1 μM) were 107±9.6 pA and 108.9±12.5 pA, respectively. At CB1 receptor [2], the “inhibition of EPSC amplitude by THC” value is given as 15.1±1.8 % of inhibition. Also, the entries for the “orthosteric binding of the CB1 agonist [3H]CP55,940” value on human CB1 receptor and on human CB1 receptor (listed as pregnenolone) were “did not modify the specific binding” and “did not displace the orthosteric binding”, respectively. The “effect on memory retention in the absence of THC” value on CB1 receptor [3] (pregnenolone 6 mg/kg) is listed as “did not induce any change in memory retention”. Moreover, the “effect on amnesic effect of THC” value on CB1 receptor [3] (pregnenolone 6 mg/kg immediately after training, THC 10 mg/kg) was “strongly blunted the amnesic effect”. The “effect on food intake in DIO model” value in assay [4] (high fat diet, food intake over 24 hours) is “did not modify food intake”. Further, the “effect on body weight” value in assay [4] (high fat diet, once a day 2 or 5 mg/kg for thirty days, effect after 15 days) is reported as “decreased body weight”. Also, the “effect on fat mass” value in assay [4] (setting [6]) is “the increase in fat mass was suppressed”. Moreover, the “effect on lean mass” value in assay [4] (setting [6]) was “the decrease in lean mass was blunted”. Also, the “first statistically significant dose for decrease of food intake” value at CB1 receptor [5] (food-deprived (food-restricted) mice, no THC) stood at 6 mg/kg. Further, the “effect on food intake in 24 h-food deprived mice” value on CB1 receptor [5] (no THC) is on record as “dose-dependently decreased food intake”; at CB1 receptor [5] (no THC, listed as pregnenolone), “dose dependently decreased food intake”. Moreover, at CB1 receptor [5] (pregnenolone), the “effect on food intake over 24 hours in fasting/refeeding model” value is “no significant effect was seen over 24 hours”.
